{"source": "patent US7932279B2", "about": "(ArQule, Inc., priority 2007, dated 2011)"}
{"target": "T1, HSP90α (Homo sapiens, UniProt P07900)", "T1 construct": "purchased Stressgen Lot B506492", "assay": "HSP90 binding assay (fluorescent ELISA, competition with biotinylated Geldanamycin)", "conditions": "reported as range of IC50's", "description": "The biochemical assay is described as follows.\nPurified HSP90α […] was purchased from Stressgen Lot B506492. Single use aliquots of the 1.15 mg/ml stock were prepared and stored at −80° C. to avoid multiple freeze-thaw cycles.\nA Nunc Maxisorb plate was coated overnight at 4° C. with 200 ng of HSP90/well dissolved in DPBS. The following day the plates were washed with TBST and blocked for 2 h at room temperature with blocking buffer (20 mM HEPES pH 7.3, 1 mM EDTA, 5 mM MgCl2, 100 mM KCl, 5% BSA). Blocking buffer was removed by washing plates with TBST, and test compounds dissolved in assay buffer (20 mM HEPES pH 7.3, 1 mM EDTA, 5 mM MgCl2, 100 mM KCl, 1% BSA) were added to plate. […] The reaction is incubated for 60 minutes at room temperature. […] Competitive inhibitory compounds will block this interaction from occurring.\nThe reactions were stopped by washing the plate with TBST. The binding of the bio-GM is detected by the addition of an Alkaline Phosphatase tagged Streptavidin molecule. A TBST wash eliminates any unbound detection agent, and the Alkaline Phosphate substrate Attophos is introduced. This substrate generates a fluorescent signal at […] when excited at […]. These plates can be monitored on either a Victor 5 or Perkin Elmer Envision multilabel reader.", "units": {"IC50": "µM"}}
{"compound": "CCCCn1nnnc1-c1cc(-c2cccc(C(=O)NCCN(C)C)c2)c(O)cc1O", "note": "[Compound 58]", "IC50": "> 50"}
{"compound": "COc1ccc(C(C)C)cc1-c1cc(-c2nnnn2C2CCN(C(=O)OC(C)(C)C)CC2)c(O)cc1O", "note": "[Compound 43]", "IC50": "10 to 50"}
{"compound": "COc1ccc(C(=O)N2CCC(n3nnnc3-c3cc(-c4cc(C(C)C)ccc4OC)c(O)cc3O)CC2)cc1", "note": "[Compound 37, {4-[5-(4,6-dihydroxy-5′-isopropyl-2′-methoxy-biphenyl-3-yl)-tetrazol-1-yl]-piperidin-1-yl}-(4-methoxy-phenyl)-methanone]", "IC50": "1 to 10"}
{"compound": "COCCn1nnnc1-c1cc(-c2cc(C(F)(F)F)ccc2F)c(O)cc1O", "note": "[Compound 10, 2′-Fluoro-5-[1-(2-methoxy-ethyl)-1H-tetrazol-5-yl]-5′-trifluoromethyl-biphenyl-2,4-diol]", "IC50": "> 50"}
{"compound": "COCCCn1nnnc1-c1cc(-c2ccc(C(F)(F)F)cc2)c(O)cc1O", "note": "[Compound 18, 5-[1-(3-methoxy-propyl)-1H-tetrazol-5-yl]-4′-trifluoromethyl-biphenyl-2,4-diol]", "IC50": "> 50"}
{"compound": "COCCCn1nnnc1-c1cc(-c2ccccc2C(F)(F)F)c(O)cc1O", "note": "[Compound 13, 5-[1-(3-Methoxy-propyl)-1H-tetrazol-5-yl]-2′-trifluoromethyl-biphenyl-2,4-diol]", "IC50": "> 50"}
{"compound": "CCCCn1nnnc1-c1cc(-c2cccc(C(=O)N3CCN(CC)CC3)c2)c(O)cc1O", "note": "[Compound 50]", "IC50": "> 50"}
{"compound": "COCCCn1nnnc1-c1cc(-c2cccc(C(=O)NCCC3CCCN3C)c2)c(O)cc1O", "note": "(stereo not drawn) [Compound 68, 2′,4′-Dihydroxy-5′-[1-(3-methoxypropyl)-1H-tetrazol-5-yl]-biphenyl-3-carboxylic acid [2-(1-methyl-pyrrolidin-2-yl)-ethyl]-amide]", "IC50": "> 50"}
{"compound": "COCCCn1nnnc1-c1cc(-c2cccc(OC(F)(F)F)c2)c(O)cc1O", "note": "[Compound 17]", "IC50": "1 to 10"}
{"compound": "COCCCn1nnnc1-c1cc(-c2cccc(C(C)C)c2)c(O)cc1O", "note": "[Compound 76, 3′-Isopropyl-5-[1-(3-methoxy-propyl)-1H-tetrazol-5-yl]-biphenyl-2,4-diol]", "IC50": "10 to 50"}
{"compound": "CCS(=O)(=O)N1CCN(C(=O)c2cccc(-c3cc(-c4nnnn4CCCOC)c(O)cc3O)c2)CC1", "note": "[Compound 66, {2′,4′-Dihydroxy-5′-[1-(3-methoxy-propyl)-1H-tetrazol-5-yl]-biphenyl-3-yl}-(4-ethanesulfonyl-piperazin-1-yl)-methanone]", "IC50": "> 50"}
{"compound": "5′-(1-Butyl-1H-tetrazol-5-yl-2′,4′-dihydroxy-biphenyl-3-carboxylic acid (3-dimethylamino-propyl)-methyl-amide [Compound 52]", "IC50": "> 50"}
{"compound": "CCCCn1nnnc1-c1cc(-c2cccc(C(=O)O)c2)c(O)cc1O", "note": "[Compound 46]", "IC50": "> 50"}
{"compound": "CCCCn1nnnc1-c1cc(-c2cccc(C(=O)NCCCN3CCCC3)c2)c(O)cc1O", "note": "[Compound 55]", "IC50": "> 50"}
{"compound": "CCCCn1nnnc1-c1cc(-c2cccc(C(=O)NC(C)COC)c2)c(O)cc1O", "note": "(stereo not drawn) [Compound 48, 5′-(1-Butyl-1H-tetrazol-5-yl)-2′,4′-dihydroxy-biphenyl-3-carboxylic acid (2-methoxy-1-methyl-ethyl)-amide]", "IC50": "> 50"}
{"compound": "CCCCn1nnnc1-c1cc(-c2cccc(C(=O)N3CCC(N4CCCC4)CC3)c2)c(O)cc1O", "note": "[Compound 49, [5′-(1-Butyl-1H-tetrazol-5-yl)-2′,4′-dihydroxy-biphenyl-3-yl]-(4-pyrrolidin-1-yl-piperidin-1-yl)-methanone]", "IC50": "> 50"}
{"compound": "COCCCn1nnnc1-c1cc(-c2cccc(C(=O)NCCCN3CCOCC3)c2)c(O)cc1O", "note": "[Compound 67, 2′,4′-Dihydroxy-5′-[1-(3-methoxy-propyl)-1H-tetrazol-5-yl]-biphenyl-3-carboxylic Acid (3-morpholin-4-yl-propyl)-amide]", "IC50": "> 50"}
{"compound": "COCCn1nnnc1-c1cc(-c2cc(C(C)C)ccc2OC)c(O)cc1O", "note": "[Compound 9]", "IC50": "1 to 10"}
{"compound": "CCCCn1nnnc1-c1cc(-c2cccc(C(=O)N3CCN(CCCN4CCOCC4)CC3)c2)c(O)cc1O", "note": "[Compound 56, [5′-(1-Butyl-1H-tetrazol-5-yl)-2′,4′-dihydroxy-biphenyl-3-yl]-[4-(3-morpholin-4-ylpropyl)-piperazin-1-yl]-methanone]", "IC50": "> 50"}
{"compound": "CCCCn1nnnc1-c1cc(-c2cccc(C(=O)OC)c2)c(O)cc1O", "note": "[Compound 22]", "IC50": "10 to 50"}
{"compound": "COCCCn1nnnc1-c1cc(-c2cccc(C(=O)OC)c2)c(O)cc1O", "note": "[Compound 21]", "IC50": "10 to 50"}
{"compound": "CCNC(=O)N1CCC(n2nnnc2-c2cc(-c3cc(C(C)C)ccc3OC)c(O)cc2O)CC1", "note": "[Compound 39]", "IC50": "1 to 10"}
{"compound": "COCCCn1nnnc1-c1cc(-c2cccc(C(=O)NC(C)COC)c2)c(O)cc1O", "note": "(stereo not drawn) [Compound 62]", "IC50": "> 50"}
{"compound": "COCCCn1nnnc1-c1cc(-c2cccc(C(=O)N3CCN(CC4CCN(C)CC4)CC3)c2)c(O)cc1O", "note": "[Compound 69]", "IC50": "> 50"}
{"compound": "COCCCn1nnnc1-c1cc(-c2ccc(Oc3ccccc3)cc2)c(O)cc1O", "note": "[Compound 74, 5-[1-(3-Methoxy-propyl)-1H-tetrazol-5-yl]-4′-phenoxy-biphenyl-2,4-diol]", "IC50": "> 50"}
{"compound": "COCCCn1nnnc1-c1cc(Br)c(O)cc1O", "note": "[Compound 25]", "IC50": "> 50"}
{"compound": "COCCCn1nnnc1-c1cc(-c2cccc(C(=O)NC(C)CN(C)C)c2)c(O)cc1O", "note": "(stereo not drawn) [Compound 70, 2′,4′-Dihydroxy-5′-[1-(3-methoxy-propyl)-1H-tetrazol-5-yl]-biphenyl-3-carboxylic acid (2-dimethylamino-1-methyl-ethyl)-amide]", "IC50": "> 50"}
{"compound": "CCCCn1nnnc1-c1cc(-c2cccc(C(=O)N3CCN(S(=O)(=O)CC)CC3)c2)c(O)cc1O", "note": "[Compound 53, [5′-(1-Butyl-1H-tetrazol-5-yl)-2′,4′-dihydroxy-biphenyl-3-yl]-(4-ethanesulfonyl-piperazin-1-yl)-methanone]", "IC50": "> 50"}
{"compound": "CCCCn1nnnc1-c1cc(-c2cccc(C(=O)NCCC3CCCN3C)c2)c(O)cc1O", "note": "(stereo not drawn) [Compound 59]", "IC50": "> 50"}
{"compound": "COc1ccc(C(C)C)cc1-c1cc(-c2nnnn2-c2ccccc2)c(O)cc1O", "note": "[Compound 120]", "IC50": "< 1"}
{"compound": "CCCCn1nnnc1-c1cc(-c2cccc(C(=O)N3CCCC(C(=O)N(CC)CC)C3)c2)c(O)cc1O", "note": "(stereo not drawn) [Compound 51]", "IC50": "> 50"}
{"compound": "CCCCn1nnnc1-c1cc(-c2cccc(C(=O)NC(C)CN(C)C)c2)c(O)cc1O", "note": "(stereo not drawn) [Compound 60, 5′-(1-Butyl-1H-tetrazol-5-yl)-2′,4′-dihydroxy-biphenyl-3-carboxylic acid (2-dimethylamino-1-methyl-ethyl)-amide]", "IC50": "> 50"}
{"compound": "COCCCn1nnnc1-c1cc(-c2ccc(F)cc2F)c(O)cc1O", "note": "[Compound 84]", "IC50": "> 50"}
{"compound": "COc1ccc(C(C)C)cc1-c1cc(-c2nnnn2C2CCNCC2)c(O)cc1O", "note": "[Compound 41]", "IC50": "1 to 10"}
{"compound": "COCCn1nnnc1-c1cc(-c2cccc(C(F)(F)F)c2)c(O)cc1O", "note": "[Compound 12]", "IC50": "> 50"}
{"compound": "COCCCn1nnnc1-c1cc(-c2cccc(C(=O)N(C)CCN(C)C)c2)c(O)cc1O", "note": "[Compound 63]", "IC50": "> 50"}
{"compound": "CCCCn1nnnc1-c1cc(-c2cccc(C(=O)N(CCO)CC(C)CC)c2)c(O)cc1O", "note": "(stereo not drawn) [Compound 61]", "IC50": "> 50"}
{"compound": "COCCCn1nnnc1-c1cc(-c2cccc(C(=O)O)c2)c(O)cc1O", "note": "[Compound 47]", "IC50": "> 50"}
{"compound": "COCCn1nnnc1-c1cc(-c2cccc(OC(F)(F)F)c2)c(O)cc1O", "note": "[Compound 11]", "IC50": "> 50"}
{"compound": "CCc1ccccc1-c1cc(-c2nnnn2CCCOC)c(O)cc1O", "note": "[Compound 75, 2′-Ethyl-5-[1-(3-methoxy-propyl)-1H-tetrazol-5-yl]-biphenyl-2,4-diol]", "IC50": "> 50"}
{"compound": "COc1ccc(C(C)C)cc1-c1cc(-c2nnnn2C2CCN(C(=O)OC(C)(C)C)C2)c(O)cc1O", "note": "(stereo not drawn) [Compound 42, 3-[5-(4,6-Dihydroxy-5′-isopropyl-2′-methoxy-biphenyl-3-yl)-tetrazol-1-yl]-pyrrolidine-1-carboxylic Acid Tert-Butyl Ester]", "IC50": "10 to 50"}
{"compound": "COCCCn1nnnc1-c1cc(-c2cccc(C(=O)N3CCN(CCN4CCCC4)CC3)c2)c(O)cc1O", "note": "[Compound 72, {2′,4′-Dihydroxy-5′-[1-(3-methoxy-propyl)-1H-tetrazol-5-yl]-biphenyl-3-yl}-[4-(2-pyrrolidin-1-yl-ethyl)-piperazin-1-yl]-methanone]", "IC50": "> 50"}
{"compound": "CCCCn1nnnc1-c1cc(-c2cccc(C(=O)NCCCN3CCOCC3)c2)c(O)cc1O", "note": "[Compound 54]", "IC50": "> 50"}
{"compound": "COCCCn1nnnc1-c1cc(-c2cccc(C)c2)c(O)cc1O", "note": "[Compound 8, 5-[1-(3-Methoxy-propyl)-1H-tetrazol-5-yl]-3′-methyl-biphenyl-2,4-diol]", "IC50": "10 to 50"}
{"compound": "COCCCn1nnnc1-c1cc(-c2cccc(C(=O)N(C)CCCN(C)C)c2)c(O)cc1O", "note": "[Compound 64, 2′,4′-Dihydroxy-5′-[1-(3-methoxy-propyl)-1H-tetrazol-5-yl]-biphenyl-3-carboxylic Acid (3-dimethylamino-propyl)-methyl-amide]", "IC50": "> 50"}
{"compound": "4-[1-(3-Methoxy-propyl)-1H-tetrazol-5-yl]-6-naphthalen-2-yl-benzene-1,3-diol [Compound 78]", "IC50": "10 to 50"}
{"compound": "5-[1-(3,3-Dimethyl-butyl)-1H-tetrazol-5-yl]-5′-isopropyl-2′-methoxy-biphenyl-2,4-diol [Compound 96]", "IC50": "1 to 10"}
{"compound": "CCOc1cccc(-c2cc(-c3nnnn3CCCOC)c(O)cc2O)c1", "note": "[Compound 77, 3′-Ethoxy-5-[1-(3-methoxy-propyl)-1H-tetrazol-5-yl]-biphenyl-2,4-diol]", "IC50": "10 to 50"}
